Source: patent EP4818155A1, “AZOBENZENE-[…], PROTEIN-COUPLED DRUG […], AND PHARMACEUTICAL USE THEREOF” (priority 2023, dated 2025)
Square brackets hold non-standard residues; d marks the D form. Peptide text beside a SMILES is read from it. * marks the point of attachment. Dolaproine = CO[C@@H]([C@@H]1CCCN1)[C@@H](C)C(=O)O; Dil = CC[C@H](C)[C@H](NC)[C@@H](CC(=O)O)OC; X1 = C[C@@H](N*)[C@@H](O)c1ccccc1; NMeV = CN[C@H](C(=O)O)C(C)C

Legend:
BT-474 = assay: In vitro cytotoxicity (CellTiter Glo); assay type: cell-based; details: Homo sapiens, BT-474, read-out: EC50 (cell proliferation inhibitory activity)
Procedure: (§1) The test procedure was shown as follows: • 1. Thawing Cell • Cryopreserved target cells was thawed by gentle agitation of the cryovial in a 37 °C water bath; • after thawing, the cryovial was removed from the water bath and decontaminated by spraying or immersing in 70% ethanol; • the cells in the cryovial were transferred into a centrifuge tube containing 9 mL of complete DMEM culture medium, followed by centrifugation at 200 g for 5 min; • the cells were resuspended with culture medium, and precipitated and seeded into a 75 cm^2 culture flask; • the cells were cultured in a Galaxy® CO2 incubator (48R, #CO48312044) under standard culture conditions of 37 °C, 20% oxygen and 5% carbon dioxide. • 2. Spreading Cell • Cells were subcultured three times per week at a ratio of 1:4 in a culture medium supplemented with 10% FBS (heat inactivated) and a 1% Penicillin-Streptomycin solution; • for cell passaging, adherent cells were first rinsed with 3 mL of trypsin/EDTA solution (3 mL). Then, 3 mL of trypsin/EDTA solution was added to the T75 culture flask, and the flask was gently rotated to ensure uniform coverage of the cell. The cells were incubated at 37 °C until complete cell detachment was achieved. Cell detachment was verified under a microscope, then an equal volume of the cell culture medium was added to inactivate the trypsin, and the separated cells were collected, centrifuged at 200 g for 5 minutes, and then re-suspended in a fresh culture medium. • 3. Inoculating cell • The cells were collected and counted; • 100 µ L of a cell suspension with adjusted density were inoculated to a 96-well cell culture plate, and the final cell density was about from 5000 cells/well to 10000 cells/well; • The culture plate was covered and incubated in a 5% CO2 incubator with 20% oxygen at 37 °C for 24 h. • 4. […] Co-incubation of cells with test compounds The culture medium in the 96 wells plate inoculated with cells was discarded, 150 µL of fresh culture medium was added to each well, and then 50 µL of the prepared test compounds were added to the 96-well plate. After the cells were co-incubated with the compounds in an incubator under conditions of 37 °C, 5% CO2, and 0.1% O2 for 24 h. After incubation, the drug-containing medium was removed, and the cells were rinsed with a fresh culture medium. Then the cells were placed in an incubator at 37 °C, 5% CO2, and 20% O2 and continuously cultured for an additional 72 h or 120 h. • 6. Reading plate • The plate was taken out of the incubator and equilibrated for 15 minutes at room temperature; • prior to the experiment, the CellTiter Glo reagent was incubated at 37 °C; • The detection solution was prepared by diluting CellTiter-Glo reagent with PBS at a volume ratio of 3:7, and the diluted solution was added into the wells to be tested; • the plate was then shaken at room temperature for 8 min, and allowed to stand for 2 min, and then signals were detected using an EnSpire reader. • 7.

MCF-7 = assay: In vitro cytotoxicity (CellTiter Glo); assay type: cell-based; details: Homo sapiens, MCF7; hypoxic conditions (0.1% O2), HER2-; read-out: EC50 (cell proliferation inhibitory activity)
Procedure: as §1

MDA-MB-231 = assay: In vitro cytotoxicity (CellTiter Glo); assay type: cell-based; details: Homo sapiens, hypoxic conditions (0.1% O2), HER2-, read-out: EC50 (cell proliferation inhibitory activity)
Procedure: as §1

NCI-N87 = assay: In vitro cytotoxicity (CellTiter Glo); assay type: cell-based; details: Homo sapiens, hypoxic conditions (0.1% O2), HER2+, read-out: EC50 (cell proliferation inhibitory activity)
Procedure: as §1

SKBR3 = assay: In vitro cytotoxicity (CellTiter Glo); assay type: cell-based; details: Homo sapiens, SK-BR-3, read-out: EC50 (cell proliferation inhibitory activity)
Procedure: as §1

[1] = Distribution and metabolism in blood, tissues and tumour; assay type: in vivo, mice; details: for area under the drug-time curve as share of that in tumors: after compound III-2 25 mg/kg
Procedure: The present example evaluated distribution and metabolism of compound III-2. SKOV3 ovarian cancer tumor-bearing mice were randomly divided into 6 groups. After tail vein injection with a single dose of compound III-2 (25 mg/kg), the mice were euthanized at the predetermined time points of 6 h, 24h, 72 h, 96 h, 168 h, 192 h in order, and blood, heart, liver, spleen, lung, and tumor samples were collected. The blood and tissue samples were stored at -80 °C for further analysis. […] At 96 h after the administration, Cys-II-2 was hardly detected in heart, liver, spleen, and lung. The peak concentration and area under the curve of the cytotoxin MMAE in the tumor were 293 times and 941 times those in peripheral blood, respectively, further proving that the excellent targeting capability of compound III-2. The area under the drug-time curve of MMAE in heart, liver, spleen and lung were 11%, 47%, 5% and 7% of area under the drug-time curve in tumors, respectively. […] Table 5 Concentration of Cys-II-2 in each group

[2] = system: Staphylococcus aureus USA300; assay: Antibacterial activity against free bacteria (OD600nm); assay type: cell-based; details: free USA300, 37 °C, 16 h to 18h
Procedure: The present example evaluated the antibacterial efficacy of compound III-16 against free Staphylococcus aureus. 5 µL to 10 µL of a Staphylococcus aureus USA300 stock suspension stored at - 80 °C was taken and streaked on Brain Heart Infusion solid culture plates and incubated overnight at 37 °C in a biochemical incubator. A single USA300 colony was picked from the solid culture plates, inoculated into an appropriate volume of Brain Heart Infusion medium, and activated for 16 h to 18 h in a bacteria shaking incubator, then the bacterial suspension was centrifuged for 5 min at a rotating speed of 4000 rpm to collect the bacteria. The bacteria were resuspended in 1×PBS and the bacterial density was diluted to about […]. The diluted bacterial suspension was added to 96-well plates at 100 µL per well. Serially diluted compound III-16 and rifalogue were added to the bacterial suspension in the 96-well plates, and the bacteria was cultured in a biochemical incubator at 37 °C for 16 h to 18h, then the OD600nm was detected using a microplate reader. […] Without being limited by theories, it is speculated that the activity of compound III-16 against free bacteria may be stemed from the cleavage of the linker in compound III-16 by azoreductase extracellularly secreted by the bacteria, which releases rifalogue to exert antibacterial effect.

[3] = after compound III-2 25 mg/kg single tail vein injection

CC[C@H](C)[C@@H]([C@@H](CC(=O)N1CCC[C@H]1[C@H](OC)[C@@H](C)C(=O)N[C@H](C)[C@@H](O)c1ccccc1)OC)N(C)C(=O)[C@@H](NC(=O)[C@@H](NC)C(C)C)C(C)C [MMAE] (H-[NMeV]V[Dil][Dolaproine]-X1)
EC50 (BT-474): 0.032 nM
EC50 (MCF-7): 0.015 nM
EC50 (MDA-MB-231): 0.57 nM
EC50 (NCI-N87): 0.24 nM
EC50 (SKBR3): 0.058 nM
Concentration of MMAE ([1]; Blood, 6 h, after compound III-2 25 mg/kg single tail vein injection): 1.54 ng/g or ng/mL
Concentration of MMAE ([1]; Blood, 24 h, after compound III-2 25 mg/kg single tail vein injection): 0.51 ng/g or ng/mL
Concentration of MMAE ([1]; Blood, 72 h, after compound III-2 25 mg/kg single tail vein injection): 0.23 ng/g or ng/mL
Concentration of MMAE ([1]; Blood, 96 h, after compound III-2 25 mg/kg single tail vein injection): 0.12 ng/g or ng/mL
Concentration of MMAE ([1]; Blood, 168 h, after compound III-2 25 mg/kg single tail vein injection): 0.10 ng/g or ng/mL
Concentration of MMAE ([1]; Blood, 192 h, after compound III-2 25 mg/kg single tail vein injection): BQL
Concentration of MMAE ([1]; Heart, 6 h, after compound III-2 25 mg/kg single tail vein injection): 112.72 ng/g or ng/mL
Concentration of MMAE ([1]; Heart, 24 h, after compound III-2 25 mg/kg single tail vein injection): 71.97 ng/g or ng/mL
Concentration of MMAE ([1]; Heart, 72 h, after compound III-2 25 mg/kg single tail vein injection): 32.46 ng/g or ng/mL
Concentration of MMAE ([1]; Heart, 96 h, after compound III-2 25 mg/kg single tail vein injection): 17.99 ng/g or ng/mL
Concentration of MMAE ([1]; Heart, 168 h, after compound III-2 25 mg/kg single tail vein injection): 2.70 ng/g or ng/mL
Concentration of MMAE ([1]; Heart, 192 h, after compound III-2 25 mg/kg single tail vein injection): 0.80 ng/g or ng/mL
Concentration of MMAE ([1]; Liver, 6 h, after compound III-2 25 mg/kg single tail vein injection): 348.31 ng/g or ng/mL
Concentration of MMAE ([1]; Liver, 24 h, after compound III-2 25 mg/kg single tail vein injection): 269.21 ng/g or ng/mL
Concentration of MMAE ([1]; Liver, 72 h, after compound III-2 25 mg/kg single tail vein injection): 115.44 ng/g or ng/mL
Concentration of MMAE ([1]; Liver, 96 h, after compound III-2 25 mg/kg single tail vein injection): 101.72 ng/g or ng/mL
Concentration of MMAE ([1]; Liver, 168 h, after compound III-2 25 mg/kg single tail vein injection): 26.86 ng/g or ng/mL
Concentration of MMAE ([1]; Liver, 192 h, after compound III-2 25 mg/kg single tail vein injection): 10.07 ng/g or ng/mL
Concentration of MMAE ([1]; Lung, 6 h, after compound III-2 25 mg/kg single tail vein injection): 22.96 ng/g or ng/mL
Concentration of MMAE ([1]; Lung, 24 h, after compound III-2 25 mg/kg single tail vein injection): 12.85 ng/g or ng/mL
Concentration of MMAE ([1]; Lung, 72 h, after compound III-2 25 mg/kg single tail vein injection): 19.79 ng/g or ng/mL
Concentration of MMAE ([1]; Lung, 96 h, after compound III-2 25 mg/kg single tail vein injection): 43.95 ng/g or ng/mL
Concentration of MMAE ([1]; Lung, 168 h, after compound III-2 25 mg/kg single tail vein injection): 1.93 ng/g or ng/mL
Concentration of MMAE ([1]; Lung, 192 h, after compound III-2 25 mg/kg single tail vein injection): 1.04 ng/g or ng/mL
Concentration of MMAE ([1]; Spleen, 6 h, after compound III-2 25 mg/kg single tail vein injection): 21.29 ng/g or ng/mL
Concentration of MMAE ([1]; Spleen, 24 h, after compound III-2 25 mg/kg single tail vein injection): 19.80 ng/g or ng/mL
Concentration of MMAE ([1]; Spleen, 72 h, after compound III-2 25 mg/kg single tail vein injection): 20.24 ng/g or ng/mL
Concentration of MMAE ([1]; Spleen, 96 h, after compound III-2 25 mg/kg single tail vein injection): 13.60 ng/g or ng/mL
Concentration of MMAE ([1]; Spleen, 168 h, after compound III-2 25 mg/kg single tail vein injection): 3.82 ng/g or ng/mL
Concentration of MMAE ([1]; Spleen, 192 h, after compound III-2 25 mg/kg single tail vein injection): 1.40 ng/g or ng/mL
Concentration of MMAE ([1]; Tumour, 6 h, after compound III-2 25 mg/kg single tail vein injection): 54.24 ng/g or ng/mL
Concentration of MMAE ([1]; Tumour, 24 h, after compound III-2 25 mg/kg single tail vein injection): 179.62 ng/g or ng/mL
Concentration of MMAE ([1]; Tumour, 72 h, after compound III-2 25 mg/kg single tail vein injection): 292.45 ng/g or ng/mL
Concentration of MMAE ([1]; Tumour, 96 h, after compound III-2 25 mg/kg single tail vein injection): 451.68 ng/g or ng/mL
Concentration of MMAE ([1]; Tumour, 168 h, after compound III-2 25 mg/kg single tail vein injection): 198.90 ng/g or ng/mL
Concentration of MMAE ([1]; Tumour, 192 h, after compound III-2 25 mg/kg single tail vein injection): 125.44 ng/g or ng/mL
area under the curve in the tumor relative to peripheral blood [1, 3]: 941 times
peak concentration in the tumor relative to peripheral blood [1, 3]: 293 times
area under the drug-time curve as share of that in tumors ([1]; heart): 11%
area under the drug-time curve as share of that in tumors ([1]; liver): 47%
area under the drug-time curve as share of that in tumors ([1]; lung): 7%
area under the drug-time curve as share of that in tumors ([1]; spleen): 5%

CO[C@H]1C=CO[C@@]2(C)Oc3c(C)c(O)c4c(=O)c(c5oc6cc(N7CCC(N(C)C)CC7)cc(=O)c6nc5c4c3=C2O)NC(=O)/C(C)=C\C=C/[C@H](C)[C@H](O)[C@@H](C)[C@@H](O)[C@@H](C)[C@H](OC(C)=O)[C@@H]1C [rifalogue]
MIC90 [2]: about 1.4 nM
